Assay results as given in patent US12599614B2, “Methods and pharmaceutical compositions for the treatment and prophylaxis of microbial infectious diseases and associated inflammatory disorders and for the treatment and prophylaxis of aging and associated diseases” (MD VAULT LLC, priority 2020, dated 2026).

How the values were obtained:
2-year-old aged mice = test: Senescence biomarkers in tissues of aged mice; format: in vivo; conditions: aged liver, muscle and skin tissues; ip 20 mg/kg X and/or 4 mg/kg Y daily for 30 days; vs DMSO vehicle; P<0.01
Experimental: To test if the drugs X and Y may reduce senescence in the tissues of aged mice, we intraperitoneally injected 2-year-old aged mice (n=10/group) with 20 mg/kg of X, or 4 mg/kg of Y, or both 20 mg/kg of X and 4 mg/kg of Y, relative to the DMSO vehicle control, on a daily basis for 30 days. Staining of liver, muscle and skin tissue sections for SA-β-gal activity was performed using the Senescence β-Galactosidase Staining Kit (Cell Signaling Technology) according to manufacturer's protocols. Protein expression of p16INK4A and H3K9me3 were evaluated by densitometric quantification of Westem blots of the liver, muscle and skin tissue samples.

[1] = test system: primary human skeletal muscle cells; test: Metabolism and gene pathway profiling of muscle cells; format: cell-based; conditions: single agent: X alone 100 mg/L or Y alone 2 mg/L
Experimental: Calorie restriction is known to ameliorate the effects of aging, by altering cellular bioenergetic stress and promoting mitochondrial activity, the unfolded protein response (UPR), the secretion of beneficial cytokines, and an increase in stem cell regeneration. To test how the drug combination X and Y mimics the effects of calorie restriction (CR), we profiled the metabolism of primary human skeletal muscle cells at passage 15 treated with X (100 mg/L) and Y (2 mg/L), compared to X alone (100 mg/L) or Y alone (2 mg/L).

[2] = test system: 1 year-old aged diabetic mice; test: Tissue regeneration in 1 year-old aged diabetic mice, oral gavage; format: in vivo; conditions: single agent: X alone 20 mg/kg or Y alone 4 mg/kg, daily oral gavage, 6 weeks
[3] = test system: 1 year-old aged mice treated with intratracheal bleomycin; test: Bleomycin lung fibrosis in aged mice (COPD/IPF model); format: in vivo; conditions: daily oral gavage over 3 weeks; intratracheal bleomycin 3 mg/kg
Experimental: Daily oral gavage of the drug combination X and Y, relative to X alone or Y alone or the vehicle over 3 weeks, led to decreases in aging-associated lung fibrosis in 1 year-old aged mice treated with intratracheal bleomycin (3 mg/kg in 50 ul phosphate buffered saline or PBS) to model chronic obstructive pulmonary disease (COPD) and idiopathic pulmonary fibrosis (IPF).

[4] = test system: adult female rats (PCOS model); test: Estrus cycles in DHEA/diet PCOS rat model; format: in vivo; conditions: daily oral gavage over 6 weeks; DHEA 60 mg/kg sc and high fat-high sugar-high cholesterol diet
Experimental: Daily oral gavage of the drug combination X and Y, relative to X alone or Y alone or the vehicle over 6 weeks, led to restoration of estrus cycles in adult female rats treated with subcutaneous dehydroepiandrosterone (DHEA; 60 mg/kg body weight) and fed with a high fat-high sugar-high cholesterol diet ad libitum to model premature ovarian aging in polycystic ovary syndrome (PCOS).

| SMILES | SA-β-gal activity staining (senescence biomarker) (2-year-old aged mice) | beneficial anti-aging effects seen with X and Y (ATP, acetyl-CoA, acetylation, Pink1, mitochondrial protein and DNA, UPR, ROS, cytokine and stem cell pathways) [1] | beneficial anti-aging effects seen with X and Y (liver, β islet, hair, wound, muscle regeneration, body mass) [2] | lung fibrosis (% fibrotic area, Masson trichrome staining, ImageJ) [3] | estrus cycles (vaginal smear analysis) [4] |
| --- | --- | --- | --- | --- | --- |
| COc1ccc(CN2CCNCC2)c(OC)c1OC [Y, 1-[(2,3,4-trimethoxyphenyl)methyl]piperazine] | but not X alone or Y alone | None of these beneficial anti-aging effects were observed | None of these beneficial anti-aging effects were observed | None of these beneficial anti-aging effects were observed | all of the rats were frozen in either the estrus or proestrus stages |
| CC(=O)Oc1ccccc1C(=O)O [X, 2-acetoxybenzoic acid] | but not X alone or Y alone | None of these beneficial anti-aging effects were observed | None of these beneficial anti-aging effects were observed | None of these beneficial anti-aging effects were observed | all of the rats were frozen in either the estrus or proestrus stages |
